Reference: patent publication US20260272868A1 (priority 2022, published 2026)
“And” between values parts separate entries of the source, which are not always exact repeats. Identical values can stand only once. Like-named read-outs stand apart in the source and are kept apart here.

Experiments:
5-HT2A receptor = biological target: T1, 5-HT2A receptor (Homo sapiens, UniProt P28223); details: cited from earlier work
T1 construct: (~mg per ~70 kg human, route); host or cells: human subjects (in vivo doses)

[1] = Plasma protein binding, rapid equilibrium dialysis, human plasma; type: in vitro ADME
Procedure: (§1) A 1 mM stock solution of trazadone was prepared in DMSO and diluted 200-fold in mouse or human plasma to yield a final concentration of 5 μM. The final DMSO concentration was 0.5%. Rapid equilibrium dialysis (RED) was performed with a RED device containing a dialysis membrane with a molecular weight cut-off of 8,000 Daltons. Each dialysis insert contains two chambers. The red chamber is for plasma while the white chamber is for buffer.
(§2) For each dialysis insert, aliquots (200 μL) of positive control or test compound at 5 μM (n=2) were separately added to the plasma chamber and 350 μL of phosphate buffered saline (pH 7.4) was added to the buffer chamber. After sealing the RED device with an adhesive film, dialysis was performed in an incubator at 37° C. with shaking at 300 RPM for 4 hours. To assess recovery and stability, 50 μL aliquots of positive control and test compound were added to 96-deep well plates and quenched with 400 μL acetonitrile (for 0 min), while comparator aliquots were incubated at 37° C. for 4 hours along with the RED device.
(§3) Following dialysis, an aliquot of 50 μL was removed from each well (both plasma and buffer side) and diluted with an equal volume of the opposite matrix (dialyzed with the other matrix) to nullify the matrix effect. Similarly, 50 μL of buffer was added to recovery and stability samples. An aliquot of 100 μL was submitted for LC-MS/MS analysis. […]

[2] = Plasma protein binding, rapid equilibrium dialysis, mouse plasma; type: in vitro ADME
Procedure: as §1, §2, §3

[3] = Human plasma pharmacokinetic parameters of trazodone collected from the literature; type: in vivo; details: mean of literature values
in vivo = details: male, C57BL/6, mouse
Procedure: Male C57BL/6 mice, aged 8-12 weeks, were used in these studies. Mice were housed 4 per cage under standard temperature- and humidity-controlled laboratory conditions with a 12-hour light/dark cycle. Mice had free access to food and water but were fasted from 4 h prior to and until 2 h after dosing. Animals were randomly assigned to treatment groups.
Doses were corrected for salt form so that the dose administered represented free base.
Immediately after blood collection, plasma was harvested by centrifugation at 4,000 rpm for 10 min at 4° C. and samples were stored at −70±10° C. until bioanalysis. Following blood collection, animals were immediately sacrificed, the abdominal vena-cava was cut open, the whole body was perfused from the heart using 10 mL of normal saline, and brain samples were collected from all animals. After isolation, brain samples were rinsed three times in ice-cold normal saline (for 5-10 seconds/rinse using ~5-10 mL normal saline in a disposable petri dish for each rinse) and dried on blotting paper. Brain samples were homogenized using ice-cold phosphate-buffered saline (pH 7.4). Total homogenate volume was three times the tissue weight. All homogenates were stored at −70±10° C. until bioanalysis. For bioanalysis, 20 μL aliquots of plasma/brain study samples or spiked plasma/brain calibration standards were added to individual pre-labeled micro-centrifuge tubes followed by 200 μL of an internal standard solution (cetirizine, 50 ng/mL in acetonitrile) except for blanks, where 200 μL of acetonitrile was added. Samples were vortexed for 5 minutes and then centrifuged for 10 minutes at 4,000 rpm at 4° C. Following centrifugation, 200 μL of each clear supernatant was transferred to a 96-well plate and analyzed with a fit-for-purpose LC-MS/MS method, with authentic samples of each analyte used for calibration and identification.

[4] = cited from earlier work
[5] = test system: head twitch response (HTR); type: in vivo, mice
Procedure: Male C57BL/6 mice (~7-9 weeks old) were used in these studies. Mice were housed 2 per cage under standard temperature- and humidity-controlled laboratory conditions with a 12-hour light/dark cycle. Mice had free access to food and water.
Both compounds were dissolved in saline vehicle at a dose volume of 10 mL/kg. Doses were corrected for salt form so that the dose administered represented free base.
Mice were randomly assigned to 1 of 6 treatment groups consisting of 2 subcutaneous injections (see Table 1), which were administered according to the schedule in FIG. 1. […] Behavior was videotaped by a camera (GoPro Hero 9) mounted above the testing chambers. Recorded video was uploaded for analysis of head twitch behavior. Number of head twitch responses (HTRs) was recorded for each animal for each 2-min bin. For each treatment group, the mean number of HTRs in each 2- or 10-min bin, and across the whole 30-min recording period, were analyzed.

T1 sequence (P28223 whole entry): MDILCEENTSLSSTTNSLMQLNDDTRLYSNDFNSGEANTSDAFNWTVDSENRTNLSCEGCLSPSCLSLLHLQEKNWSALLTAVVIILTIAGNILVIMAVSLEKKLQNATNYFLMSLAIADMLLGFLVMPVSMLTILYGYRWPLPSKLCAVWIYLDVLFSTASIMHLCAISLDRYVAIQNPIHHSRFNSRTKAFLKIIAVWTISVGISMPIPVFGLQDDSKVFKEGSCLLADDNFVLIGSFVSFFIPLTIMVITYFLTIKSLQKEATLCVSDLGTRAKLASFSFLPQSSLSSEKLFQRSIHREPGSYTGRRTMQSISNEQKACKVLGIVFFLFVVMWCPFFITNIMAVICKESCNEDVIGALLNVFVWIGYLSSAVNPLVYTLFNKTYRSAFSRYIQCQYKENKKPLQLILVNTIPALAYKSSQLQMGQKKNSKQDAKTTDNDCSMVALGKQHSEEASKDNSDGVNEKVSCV

For COc1cc(CCN)c(OC)cc1Br [2C-B], the “Typical Fully Psychedelic Dose Range” value (5-HT2A receptor; oral) is listed as 15-25, oral ~mg per ~70 kg human.
For CCc1cc(OC)c(CCN)cc1OC [2C-E, 2-(4-Ethyl-2,5-dimethoxyphenyl)ethanamine], the “Typical Fully Psychedelic Dose Range” value (5-HT2A receptor; oral) is listed as 10-20, oral ~mg per ~70 kg human.
In the case of COc1ccc2[nH]cc(CCN(C)C)c2c1 [5-MeO-DMT, 5-methoxy-N,N-dimethyltryptamine], the “Typical Fully Psychedelic Dose Range” value (5-HT2A receptor; smoked) is listed as 5-10, smoked ~mg per ~70 kg human.
For CN(C)CCc1c[nH]c2ccccc12 [DMT, N,N-dimethyltryptamine], the “Typical Fully Psychedelic Dose Range” value (5-HT2A receptor; smoked) is given as 20-40, smoked ~mg per ~70 kg human.
In the case of COc1cc(CC(C)N)c(OC)cc1C (stereo not shown) [DOM, 2,5-dimethoxy-4-methylamphetamine], the “Typical Fully Psychedelic Dose Range” value (5-HT2A receptor; oral) is given as 3-5, oral ~mg per ~70 kg human.
In the case of CCN(CC)C(=O)[C@@H]1C=C2c3cccc4[nH]cc(c34)C[C@H]2N(C)C1 [LSD, lysergic acid diethylamide], the “Typical Fully Psychedelic Dose Range” value (5-HT2A receptor; oral) is given as 0.1-0.2, oral ~mg per ~70 kg human.
For COc1cc(CCN)cc(OC)c1OC [mescaline], the “Typical Fully Psychedelic Dose Range” value (5-HT2A receptor; oral) is given as 200-400, oral ~mg per ~70 kg human.
For CN(C)CCc1c[nH]c2cccc(O)c12 [psilocin], the “Typical Fully Psychedelic Dose Range” value (5-HT2A receptor; oral) is listed as 15-25, oral ~mg per ~70 kg human.
In the case of O=c1n(CCCN2CCN(c3cccc(Cl)c3)CC2)nc2ccccn12 [trazodone], the “bound fraction in plasma” value ([1]; 5 μM, 4 hours, 37° C.) is reported as 90.2%, the fraction unbound at 4 h, 5 μM ([1]; pH 7.4, 37° C.) is reported as 0.098 and the “bound fraction in plasma” value ([2]; 5 μM, 4 hours, 37° C.) is reported as 94.4%. The fraction unbound at 4 h, 5 μM ([2]; pH 7.4, 37° C.) was 0.056, the “Cmax (ng/mL per mg dosed)” value ([3]; PO) was 17.2 ng/mL per mg dosed and the half-life ([3]; human, plasma, IV) was 6.3 h. For the same compound, the Tmax ([3]; human, plasma, PO) was 1.5 h, the half-life ([3]; human, plasma, PO) was 9.1 h and the concentration at 5 min (in vivo; 1 mg/kg) was 800 ng/mL and 700 ng/g. For the same compound, the concentration at 15 min (in vivo; 1 mg/kg) was 504 ng/mL and 584 ng/g, the concentration at 25 min (in vivo; 1 mg/kg) was 369 ng/mL and 255 ng/g and the concentration at 5 min (in vivo; 3.2 mg/kg) was 1480 ng/mL and 1750 ng/g. For the same compound, the concentration at 15 min (in vivo; 3.2 mg/kg) was 1350 ng/mL and 1600 ng/g, the concentration at 25 min (in vivo; 3.2 mg/kg) was 1020 ng/mL and 674 ng/g and the concentration at 5 min (in vivo; 10 mg/kg) was 3490 ng/mL and 7930 ng/g. For the same compound, the concentration at 15 min (in vivo; 10 mg/kg) was 2870 ng/mL and 5100 ng/g, the concentration at 25 min (in vivo; 10 mg/kg) was 1910 ng/mL and 3580 ng/g and the T1/2 ([4]; 25 mg IV, Greenblatt, 1987) was 5.3 h. For the same compound, the “Cmax (ng/mL per mg dosed)” value ([4]; 50 mg PC, Greenblatt, 1987) was 18.8 ng/mL per mg dosed, the T1/2 ([4]; 50 mg PC, Greenblatt, 1987) was 5.2 h and the Tmax ([4]; 50 mg PC, Greenblatt, 1987) was 1.02 h. For the same compound, the “Cmax (ng/mL per mg dosed)” value ([4]; 50 mg PO, Gammans, 1984) was 17.16 ng/mL per mg dosed, the T1/2 ([4]; 50 mg PO, Gammans, 1984) was 13.3 h and the Tmax ([4]; 50 mg PO, Gammans, 1984) was 0.9 h. The T1/2 ([4]; 90 mg IV, Nilsen, 1992) was 7.3 h, the “Cmax (ng/mL per mg dosed)” value ([4]; 100 mg PO, Bayer, 1983) was 16 ng/mL per mg dosed and the T1/2 ([4]; 100 mg PO, Bayer, 1983) was 6.0 h. The Tmax ([4]; 100 mg PO, Bayer, 1983) was 2 h, the “Cmax (ng/mL per mg dosed)” value ([4]; 100 mg PO, Kale, 2015) was 15.47 ng/mL per mg dosed and the T1/2 ([4]; 100 mg PO, Kale, 2015) was 13.1 h. For the same compound, the Tmax ([4]; 100 mg PO, Kale, 2015) was 2.25 h, the “Cmax (ng/mL per mg dosed)” value ([4]; 100 mg PO, Nilsen, 1992) was 18.8 ng/mL per mg dosed and the T1/2 ([4]; 100 mg PO, Nilsen, 1992) was 7.8 h. The Tmax ([4]; 100 mg PO, Nilsen, 1992) was 1.34 h, the half-life ([4]; human) was 6 to 12 h and the “HTR reversal quantified in 10-minute bins” value ([5]; 0-10, 10-20, 20-30 min post trazodone, even at the lowest dose) was “rapid and robust HTR reversal effect”. The “onset of reversal of DOPR HTR” value ([5]; all trazodone doses tested, SC, 45 min after DOPR 3.2 mg/kg SC) was no more than 2 min, the “persistence of HTR reversal effect” value ([5]; all trazodone doses tested, limited by recording period) was no less than 30 min and the “reversal of DOPR-induced HTR in the 20-30-minute time bin” value ([5]; lowest dose of trazodone (1 mg/kg SC)) was “full reversal”. The “minimum efficacious concentration (MEC) in plasma for reversal” value ([5]; mice, total plasma concentration 25 min after 1 mg/kg SC trazodone) was no more than 369 ng/mL and the “reversal of HTR induced by DOPR” value ([5]; trazodone 1, 1.8, 3.2 or 10 mg/kg SC 45 min after DOPR 3.2 mg/kg SC, 30-min recording, all doses incl. lowest) was “fully reversed”.
